The numbers were not newly measured in patent publication US8506932B2, “Tetracyclic indole derivatives as in vivo imaging agents and having peripheralbenzodiazepine receptor affinity (PBR)” (Hammersmith Imanet Limited, priority 2005, dated 2013), which cites them from elsewhere.

For data set [1] the following is noted: stated as known limitation.
The target in the next data set is PBR (Homo sapiens, UniProt P30536). The conditions noted are these: stated as known limitation.
PBR, sequence (P30536 whole entry, species assumed): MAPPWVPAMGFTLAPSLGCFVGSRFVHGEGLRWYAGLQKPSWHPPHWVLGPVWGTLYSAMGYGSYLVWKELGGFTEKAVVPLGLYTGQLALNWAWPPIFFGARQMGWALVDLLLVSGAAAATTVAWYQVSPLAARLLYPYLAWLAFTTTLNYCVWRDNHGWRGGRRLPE

For `CC[C@@H](C)N([11CH3])C(=O)c1cc2ccccc2c(-c2ccccc2Cl)n1` [(R)-[11C]PK11195], in data set [1], the protein binding entry was “high”. In addition, the “specific to non-specific binding” value on PBR is “low”.
